# Measurements taken from US6605602B1, “Method of treating BK virus nephropathy” (University of Pittsburgh-of the Commonwealth System of …, priority 2001, dated 2003).
# Columns and labels:
# [1] = Serum creatinine of cidofovir-treated BKVN renal transplant patients; format: in vivo, human; design: Current Creatinine: unit: mg/dl
# Protocol: Four patients were treated with cidofovir at a dosage level of […], 2-3 times weekly. This is […] of the recommended dose of 5 mg/kg. In addition, cidofovir was administered without probenecid.
# Subsequently, the serum creatinine progressively rose to 8 mg/dl. At this point, a combination of IV IgG, high dose steroids and a single dose of cidofovir (1 mg/kg IV without probenecid) was administered.
# [2] = system: BK virus (BKV); test: Cidofovir treatment of renal transplant recipients with BKV nephropathy; BKV viral load by TaqMan QPCR; format: in vivo, human
# Protocol: Nucleic acid was extracted from urine and plasma specimens (150 μl of urine or plasma per specimen) using the Qui Amp Viral RNA Minikit, commercially available from Qiagen, Inc. The extraction procedure was performed according to the manufacturer's instructions provided with the kit.
# A BKV gene sequence from the VP-1 region was amplified by the real-time TaqMan QPCR assay using the following primers and probe. The forward BKVN primer had the sequence 5′-[…]-3′ (SEQ ID NO. 1) and a Tm of 59° C. The reverse BKVN primer had the sequence 5′-[…]-3′ (SEQ ID NO. 2) and a Tm of 59° C. The TaqMan probe had the sequence 5′-[…]-3′ (SEQ ID NO. 4) and a Tm of 68° C. The TaqMan probe was labeled at the 5′ end with a FAM dye and at the 3′ end with a TAMRA dye. […]
# In order to generate a positive control, a BKV gene sequence from the VP-1 region encompassing the TaqMan primer amplicon was cloned in a vector using the pGEM-T PCR cloning system (Promega, Madison, Wis.). The above sequence was then quantitated using UV spectrophotometry in order to calculate the copy number for a master standard positive control. A 10× serial dilution of standard positive control, with copies ranging from 10^7 to 10^10 was made and used to generate a standard curve with each quantitative assay. […] The urinary viral load was expressed as BKV copies/μl of urine. The plasma viral load was expressed as BKV copies/μl. […]
# [3] = system: JC virus; conditions: patients, infection caused by JC virus; cited from earlier work
# [4] = system: polyoma viral DNA replication; conditions: in vitro studies; cited from earlier work
# [5] = contraindicated in patients with impaired renal function; cited from earlier work
# [6] = within 24 hours of administration; usual dosage 5 mg/kg; cited from earlier work
Structure (SMILES),"Current Creatinine ([1]; Patient 1, Post Urethral valve, 3 doses (20-20-40 mg))","Current Creatinine ([1]; Patient 2, Diabetic Nephropathy, 3 doses (70-35-15 mg))","Current Creatinine ([1]; Patient 3, Renal Dysplasia, 1 dose (20 mg))","Current Creatinine ([1]; Patient 4, IgA Nephropathy, 4 doses (200-200-200-70 mg))","serum creatinine after treatment ([1]; case report Patient #1, after resuming full immunosuppression, had risen to 8 mg/dl before treatment)","BKV in urine and blood samples by QPCR ([2]; case report Patient #1, two months after single dose 1 mg/kg IV without probenecid, combined with IV IgG and high dose steroids)","clearance of BKV viruria, number of doses needed ([2]; four BKVN patients, 0.25 to 1.0 mg/kg, 2-3 times weekly, without probenecid)",effect in progressive multifocal leukoencephalopathy [3],inhibition of polyoma viral DNA replication [4],nephrotoxicity [5],dose excreted in the urine unchanged [6]
"Nc1ccn(C[C@@H](CO)OCP(=O)(O)O)c(=O)n1 [cidofovir, (S)-1-(3-hydroxy-2-phosphonylmethoxypropyl) cytosine]",1.8,3.2,1.7,3,1.7 to 1.9 mg/dL,Neither sample was amplifiable for BKV,2-4 doses,reportedly effective,inhibit polyoma viral DNA replication,nephrotoxic,75-80%
Nc1ccn([C@@H]2O[C@H](CO)[C@@H](O)[C@@H]2O)c(=O)n1 [cytosine arabinoside],,,,,,,,,inhibit polyoma viral DNA replication,,
